According to patent US9328386B2, “Markers for susceptibility to an inhibitor of an Src-family kinase” (Evotec (München) GmbH, priority 2011, dated 2016):

Assays:
H2887 NSCLC cell line = conditions: dasatinib, cited from earlier work
H1395 NSCLC cell line = conditions: dasatinib, cited from earlier work
[1] = system: MCF7 breast cancer cell line; conditions: dasatinib, Huang et al. 2007, read-out: GI50 literature; cited from earlier work
[2] = system: MDA-MB-231 breast cancer cell line; assay: Cellular growth inhibition (CellTiter Glo viability assay); type: cell-based; conditions: Homo sapiens, MDA-MB-231, 96 h; read-out: GI50 this paper
H2009 NSCLC cell line = conditions: dasatinib, cited from earlier work
HCC1359 NSCLC cell line = conditions: dasatinib, cited from earlier work
H157 NSCLC cell line = conditions: dasatinib, cited from earlier work
HCC4006 NSCLC cell line = conditions: dasatinib, cited from earlier work
H1666 NSCLC cell line = conditions: dasatinib, cited from earlier work
MAP2K2 = MAP2K2 (Homo sapiens, UniProt P36507); assay: biochemical
MAP2K2, sequence (P36507 whole entry): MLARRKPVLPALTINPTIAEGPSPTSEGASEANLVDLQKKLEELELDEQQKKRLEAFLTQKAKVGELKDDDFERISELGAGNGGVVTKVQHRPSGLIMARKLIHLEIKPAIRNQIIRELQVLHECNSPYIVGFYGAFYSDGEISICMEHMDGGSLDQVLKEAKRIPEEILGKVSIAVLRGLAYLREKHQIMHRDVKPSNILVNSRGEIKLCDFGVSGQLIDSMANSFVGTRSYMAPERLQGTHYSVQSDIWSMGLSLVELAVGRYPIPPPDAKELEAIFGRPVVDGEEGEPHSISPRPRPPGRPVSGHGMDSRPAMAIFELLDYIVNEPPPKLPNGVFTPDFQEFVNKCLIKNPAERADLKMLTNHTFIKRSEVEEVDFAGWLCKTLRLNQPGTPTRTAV
Experimental: (§1) For in vitro association experiments 4×10^8 PC9 cells were lysed in buffer containing 20 mM HEPES pH 7.5, 400 mM NaCl. 0.25% Triton X-100, 1 mM DTT, 1.5 mM MgCl2, 0.5 mM ZnCl2, 0.5 mM EDTA, 0.5 mM EGTA, 1600 U/ml Benzonase plus additives (10 μg/ml aprotinin, 10 μg/ml leupeptin, 1 mM PMSF, 1 mM Na3VO4, 10 mM NaF). After centrifugation the supernatant was adjusted to 1 M NaCl, filtered through a 0.45 μm celluloseacetate filter and subjected to KinAffinity™ beads representing several different broad-spectrum kinase inhibitors immobilized on Sepharose beads. For each in vitro association experiment 750 μl cell extract (4 mg/ml) were incubated with 30 μl KinAffinity™ beads for 2.5 h at 4° C. […] The extracted peptides were derivatized for quantitative mass spectrometry using the TMT 6-plex reagent according to the manufactures instructions and were subsequently combined for mass spectrometric analysis.
(§2) Mass spectrometric analysis of the labeled and combined peptide fractions was carried out by on-line nanoLC-MS/MS. […] The resulting fragmentation spectra were also recorded in the linear ion trap.
(§3) Regarding the search parameters, the minimal peptide length was set to 6 amino acids, trypsin was selected as proteolytic enzyme and maximally 2 missed cleavage sites were allowed. […] The intensities of the TMT reporter ions were read from the msm files. […]

MAP2K1 = MAP2K1 (Homo sapiens, UniProt Q02750); assay: biochemical
MAP2K1, sequence (Q02750 whole entry): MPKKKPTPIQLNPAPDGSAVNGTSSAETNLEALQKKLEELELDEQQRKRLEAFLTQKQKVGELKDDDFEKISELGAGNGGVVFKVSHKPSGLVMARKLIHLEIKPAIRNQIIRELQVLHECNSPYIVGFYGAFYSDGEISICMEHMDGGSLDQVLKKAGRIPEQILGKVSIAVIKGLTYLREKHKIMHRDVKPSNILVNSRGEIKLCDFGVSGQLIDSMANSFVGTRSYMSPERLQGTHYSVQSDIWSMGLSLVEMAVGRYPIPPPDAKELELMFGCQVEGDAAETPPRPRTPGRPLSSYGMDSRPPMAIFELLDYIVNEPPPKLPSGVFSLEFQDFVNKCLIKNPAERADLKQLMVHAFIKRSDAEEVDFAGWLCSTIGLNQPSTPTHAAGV
Experimental: as §1, §2, §3

23 tested kinases = conditions: IVKA; cited from earlier work
[3] = Sos et al. 2009, read-out: GI50 literature

SMILES	GI50 (H2887 NSCLC cell line; [3])	IC50 (H2887 NSCLC cell line; read-out: Class)	GI50 (H1395 NSCLC cell line; [3])	IC50 (H1395 NSCLC cell line; read-out: Class)	GI50 [1]	GI50 [2]	GI50 (H2009 NSCLC cell line; [3])	Sensitivity class (H2009 NSCLC cell line)	GI50 (HCC1359 NSCLC cell line; [3])	IC50 (HCC1359 NSCLC cell line; read-out: Class)	GI50 (H157 NSCLC cell line; [3])	Sensitivity class (H157 NSCLC cell line)	GI50 (HCC4006 NSCLC cell line; [3])	IC50 (HCC4006 NSCLC cell line; read-out: Class)	GI50 (H1666 NSCLC cell line; [3])	Sensitivity class (H1666 NSCLC cell line)	Kd (MAP2K2)	Kd (MAP2K1)	number of tested kinases submicromolar (23 tested kinases)
Cc1nc(Nc2ncc(C(=O)Nc3c(C)cccc3Cl)s2)cc(N2CCN(CCO)CC2)n1 [dasatinib, N-(2-chloro-6-methylphenyl)-2-[[6-[4-(2-hydroxyethyl)piperazin-1-yl]-2-methylpyrimidin-4-yl]amino]-1,3-thiazole-5-carboxamide]	11.3 µM	> 1 µM	31.1 µM	> 1 µM	> 9.52 µM	0.036 µM	0.747 µM	< 1000 nM	11.3 µM	> 1 µM	10.5 µM	> 1000 nM	0.838 µM	< 1 µM	0.175 µM	< 1000 nM	–	–	–
CN1CCN(CCOc2cc(OC3CCOCC3)c3c(Nc4c(Cl)ccc5c4OCO5)ncnc3c2)CC1 [saracatinib, N-(5-Chloro-1,3-benzodioxol-4-yl)-7-[2-(4-methyl-1-piperazinyl)ethoxy]-5-[(tetrahydro-2H-pyran-4-yl)oxy]-4-quinazolinamine]	–	–	–	–	–	–	–	–	–	–	–	–	–	–	–	–	2.31 µM	1.23 µM	13 of 23 tested submicromolar
